Source: patent publication US20070213303A1, “Methods for reducing platelet activation and for the treatment of thrombotic events” (priority 2005, published 2007)

Experiments:
Type in all cases: cell-based, human
[1] = tested on: PECAM-1 (CD31); assay: Flow cytometry, platelet surface expression of CD31
Description: (§1) Venous blood (8 ml) is collected in a plastic tube containing 2 ml of acid-citrate-dextrose (ACD) (7.3 g citric acid, 22.0 g sodium citrate.2H2O and 24.5 glucose in 1000 ml distilled water) and mixed well. The blood-ACD mixture is centrifuged at 1000 r.p.m. for 10 minutes at room temperature. The upper ⅔ of the platelet-rich plasma (PRP) is then collected and adjusted to pH=6.5 by adding ACD. The PRP is then centrifuged at 3000 r.p.m. for 10 minutes. The supernatant is removed and the platelet pellet is gently resuspended in 4 cc of the washing buffer (10 mM Tris/HCl, 0.15 M NaCl, 20 mM EDTA, pH=7.4). Platelets are washed in the washing buffer, and in TBS (10 mM Tris, 0.15 M NaCl, pH=7.4). All cells are then divided into the appropriate number of tubes. By way of example, if 9 different surface markers are evaluated, as described herein, then the cells should be divided into ten tubes, such that nine tubes containing washed platelets are incubated with 5 μl fluorescein isothiocyanate (FITC)-conjugated antibodies in the dark at +4° C. for 30 minutes, and one tube remains unstained and serves as a negative control. Surface antigen expression is measured with monoclonal murine anti-human antibodies, such as CD9 (p24); CD41a (IIb/IIIa, aIIbb3); CD42b (Ib); CD61(IIIa) (DAKO Corporation, Carpinteria, Calif.); CD49b (VLA-2, or a2b1); CD62p (P-selectin); CD31 (PECAM-1); CD 41b (IIb); and CD51/CD61 (vitronectin receptor, avb3) (PharMingen, San Diego Calif.), as the expression of these antigens on the cells is associated with platelet activation. After incubation, the cells are washed with TBS and resuspended in 0.25 ml of 1% paraformaldehyde. Samples are stored in the refrigerator at +4° C., and analyzed on a Becton Dickinson FACScan flow cytometer with laser output of 15 mw, excitation at 488 nm, and emission detection at 530±30 nm. The data can be collected and stored in list mode, and then analyzed using CELLQuest® software. FACS procedures are described in detail in, e.g., Gurbel, P. A. et al., J Amer Coll Cardiol 31: 1466-1473 (1998); Serebruany, V. L. et al., Am Heart J 136: 398-405 (1998); Gurbel, P. A. et al., Coron Artery Dis 9: 451-456 (1998) and Serebruany, V. L. et al., Arterioscl Thromb Vasc Biol 19: 153-158 (1999).
(§2) Four cc of blood is collected in a tube, containing 2 cc of acid-citrate-dextrose (ACD; 7.3 g citric acid, 22.0 g sodium citrate.2H2O and 24.5 glucose in 1000 ml distilled water) and mixed well. The buffer, TBS (10 mM Tris, 0.15 M NaCl, pH 7.4) and the following fluorescein isothiocyanate (FITC) conjugated monoclonal antibodies (PharMingen, San Diego, Calif., USA, and DAKO, Calif., USA) are removed from a refrigerator and allowed to warm at room temperature (RT) prior to their use. The non-limiting examples of antibodies that can be used include CD41 (IIb/IIIa), CD31 (PECAM-1), CD62p (P-selectin), and CD51/61 (Vitronectin receptor). For each subject, six amber tubes (1.25 ml) are one Eppendorf tube (1.5 ml) are obtained and marked appropriately 450 μl of TBS buffer is pipetted to the labeled Eppendorf tube. A patient's whole blood tube is inverted gently twice to mix, and 50 μl of whole blood is pipetted to the appropriately labeled Eppendorf tube. The Eppendorf tube is capped and the diluted whole blood is mixed by inverting the Eppendorf tube gently two times, followed by pipetting 50 μl of diluted whole blood to each amber tube. […] The samples are analyzed on a Becton Dickinson FACScan flow cytometer. […]

[2] = tested on: platelets; assay: Conventional platelet aggregation induced by ADP
Description: Trisodium citrate (3.8%) and whole blood is immediately mixed in a 1:9 ratio, and then centrifuged at 1200 g for 2.5 minutes, to obtain platelet-rich plasma (PRP), which is kept at room temperature for use within 1 hour for platelet aggregation studies. Platelet count is determined in each PRP sample with a Coulter Counter ZM (Coulter Co., Hialeah, Fla.). Platelet numbers are adjusted to 3.50×10^8/ml for aggregation with homologous platelet-poor plasma. PRP and whole blood aggregation tests are performed simultaneously. Whole blood is diluted 1:1 with the 0.5 ml PBS, and then swirled gently to mix. The cuvette with the stirring bar is placed in the incubation well and allowed to warm to 37° C. for 5 minutes. Then the samples are transferred to the assay well. An electrode is placed in the sample cuvette. Platelet aggregation is stimulated with 5 μM ADP, 1 μg/ml collagen, and 0.75 mM arachidonic acid. All agonists are obtained, e.g., from Chronolog Corporation (Hawertown, Pa.). Platelet aggregation studies are performed using a Chrono-Log Whole Blood Lumi-Aggregometer (model 560-Ca). Platelet aggregability is expressed as the percentage of light transmittance change from baseline using platelet-poor plasma as a reference at the end of recording time for plasma samples, or as a change in electrical impedance for whole blood samples. Aggregation curves are recorded for 4 minutes and analyzed according to internationally established standards using Aggrolink® software.
The effect of doses (15 μg/ml to 90 μg/ml) of Compound A on in vitro platelet characteristics in subjects with multiple factors for vascular disease was tested.
The in vitro effects of pre-incubation with escalating concentrations of Compound A on platelet aggregation, and expression of major surface receptors by flow cytometry, were assessed in 20 aspirin naïve volunteers with multiple risk factors for vascular disease.

[3] = tested on: platelet-monocyte microparticles (CD14+CD151); assay: Flow cytometry, formation of platelet-monocyte microparticles
Description: as §1, §2

[4] = tested on: LAMP-3 (CD63); assay: Flow cytometry, platelet surface expression of CD63
Description: as §1, §2

## CC(C)(Sc1cc(C(C)(C)C)c(O)c(C(C)(C)C)c1)Sc1cc(C(C)(C)C)c(OC(=O)CCC(=O)O)c(C(C)(C)C)c1 [Compound A]
[1]; preincubation 15 μg/mL
  Flow cytometry CD31: 58.4 ± 5.7
[1]; preincubation 30 μg/mL
  Flow cytometry CD31: 57.8 ± 6.5
[1]; preincubation 60 μg/mL
  Flow cytometry CD31: 55.8 ± 7.1
[1]; preincubation 90 μg/mL
  Flow cytometry CD31: 50.9 ± 8.9
[1]; pretreated samples
  Surface platelet expression of PECAM-1 (CD31): decreased
[2]; preincubation 15 μg/mL
  Conventional platelet aggregation, ADP 5 μM: 39.95 ± 11.9%
[2]; preincubation 30 μg/mL
  Conventional platelet aggregation, ADP 5 μM: 40.4 ± 6.9%
[2]; preincubation 60 μg/mL
  Conventional platelet aggregation, ADP 5 μM: 42.05 ± 7.2%
[2]; preincubation 90 μg/mL
  Conventional platelet aggregation, ADP 5 μM: 42.65 ± 6.3%
[2]; pretreatment of blood samples with 15-30-60-90 μg/ml
  platelet aggregation induced by ADP: uniformed significant inhibition
[3]; preincubation 15 μg/mL
  Flow cytometry CD151 + 14: 131.4 ± 11.8
[3]; preincubation 30 μg/mL
  Flow cytometry CD151 + 14: 107.6 ± 15.4
[3]; preincubation 60 μg/mL
  Flow cytometry CD151 + 14: 98.7 ± 12.9
[3]; preincubation 90 μg/mL
  Flow cytometry CD151 + 14: 97.9 ± 10.8
[3]; pretreated samples
  Formation of platelet-monocyte microparticles (CD14+CD151): reduced
[4]
  LAMP-3 (CD63): little or no effect
[4]; preincubation 15 μg/mL
  Flow cytometry CD63: 7.0 ± 1.4
[4]; preincubation 30 μg/mL
  Flow cytometry CD63: 7.4 ± 1.4
[4]; preincubation 60 μg/mL
  Flow cytometry CD63: 6.8 ± 1.5
[4]; preincubation 90 μg/mL
  Flow cytometry CD63: 6.7 ± 1.4
